Test results from US20040191203A1, “Cosmetic or dermatological composition comprising n-acylaminoamide derivatives” (priority 2001, published 2004).

Columns and labels:
[1] = target: T1, human leukocyte elastase (HLE) (Homo sapiens, UniProt P08246); test: anti-elastase activity relative to human leukocyte elastase, Me-OSAAPV-p-NA substrate, spectrophotometry; format: biochemical
T1 sequence (P08246 30-267): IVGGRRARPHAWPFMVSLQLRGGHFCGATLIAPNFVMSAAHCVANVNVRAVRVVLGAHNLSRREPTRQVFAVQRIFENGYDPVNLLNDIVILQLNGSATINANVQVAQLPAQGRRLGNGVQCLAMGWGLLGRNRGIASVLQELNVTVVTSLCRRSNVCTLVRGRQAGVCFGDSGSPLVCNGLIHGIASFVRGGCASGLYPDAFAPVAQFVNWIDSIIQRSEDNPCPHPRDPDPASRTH
Experimental: The anti-elastase activity of compounds according to the invention has been determined relative to human leukocyte elastase (HLE).
The test is performed as follows. […]
The inhibition % of the control elastase activity is then determined through spectrophotometry.

[2] = tested on: surviving human skins treated by human leukocyte elastase (HLE); test: ex vivo activity on fresh cuts of surviving human skins treated by HLE for 2 hours, elastic fibre morphometry; conditions: 20° C.
Experimental: The ex vivo activity of the compound in example 2 has been evaluated on surviving human skins treated by human leukocyte elastase (HLE). Fresh cuts from human skins, originating from 2 different donors, are treated for 2 hours, at 20° C., by 20 μl of a buffer solution (pH 7.4) optionally comprising 10 μg/ml of HLE and optionally 0.1% of the compound to be tested, optionally previously put in a solution in ethanol. The elastic fibres are coloured in blue using (+) catechin and are morphometrically quantified by computer assisted picture analysis. The surface percentage of average dermis occupied by the elastic fibres was evaluated this way.

[3] = tested on: surviving UVA irradiated human skins (8 J/cm^2); test: activity on surviving UVA irradiated human skins, morphometry of elastic fibres and collagen; conditions: UVA 8 J/cm^2 + 5 μl of compound at 0.2% in ethanol every two days; 7 days, 37° C.; four donors
Experimental: The activity of the compound in example 2 has been evaluated on surviving UVA irradiated human skins (8 J/cm^2). Fragments of normal human skin, originating from four different donors, are placed in inserts positioned in culture wells. Some antibiotic supplemented culture medium is added in the bottom of the wells. A passage occurs through slow diffusion between both compartments by means of a porous membrane (pore size: 12 μm). The culture medium is renewed every three days. On the skin fragments, every two days, are added 5 μl of the compound to be tested, previously put in a solution at 0.2% in ethanol. The skins are kept surviving for 7 days at 37° C. The skins are irradiated once at 8 J/cm^2 at 37° C. (Vilbert-Lourmat lamp, RMX-3W). The elastic fibres are coloured in blue using (+) catechin and are morphometrically quantified by computer assisted picture analysis. The surface percentage of average dermis occupied by the elastic fibres was evaluated this way.

[4] = tested on: surviving human skins treated by human leukocyte elastase (HLE); test: ex vivo activity on human skin fragments kept surviving 10 days in culture with HLE, elastic fibre morphometry; conditions: HLE 0.5 μg per ml of medium + 5 μl of compound at 0.2% in ethanol every other day, 37° C., 3 donors
Experimental: The ex vivo activity of the compound in example 2 has been evaluated on surviving human skins treated by human leukocyte elastase (HLE). Fragments of normal human skin, originating from 3 different donors, are placed in inserts positioned in culture wells. Some antibiotic supplemented culture medium is added in the bottom of the wells. A passage occurs through slow diffusion between both compartments by means of a porous membrane (pore size: 12 μm). The culture medium is renewed every three days. Optionally 0.5 μg of HLE per ml of culture medium are optionally added on the skin fragments. Also are added, every other day, 5 μl of the compound to be tested, previously put in a solution at 0.2% in weight in ethanol. The skins are kept surviving for 10 days at 37° C. The elastic fibres are coloured in blue using (+) catechin and are morphometrically quantified by computer assisted picture analysis. The surface percentage of average dermis occupied by the elastic fibres was evaluated this way.

Row | Inhibition % of the control elastase activity ([1]; compound concentration 0.1%, HLE 40 milli-units per ml, 37° C., 60 minutes) [%] | Inhibition % of the control elastase activity ([1]; concentration of compound A 0.2%) [%] | inhibition of the elastase activity (in words) ([1]; even in a low amount) | Compound | Surface % occupied by the elastic fibres ([2]; Skin 1, HLE 10 μg/ml + 0.1% compound) [%] | Surface % occupied by the elastic fibres ([2]; Skin 2, HLE 10 μg/ml + 0.1% compound) [%] | Morphometric analysis of the collagen (superficial dermis) [3] [%] | Morphometric analysis of the elastic fibres (superficial dermis) [3] [%] | Surface % occupied by the elastic fibres [4] [%]
1 | 17 |  |  | CCOC(=O)CNC(=O)C(C(C)C)N(Cc1ccccc1)C(=O)CP(=O)(OCC)OCC (centres unmarked) [Compound B, ethyl (2-{benzyl-[(diéethoxyphosphoryl)-acetyl]-amino}-3-méthylbutyrylamino) acetate] |  |  |  |  | 
2 |  | 68 | strong inhibition | CC(=O)N(c1cccc(C(F)(F)F)c1)C(C(=O)NCC(=O)O)C(C)C (centres unmarked) [Compound A, {2-[acetyl-(3-trifluoromethyl-phenyl)-amino]-3-methyl-butyrylamino}acetic acid] | 13.95 | 11.85 | 92 | 6.8 | 7.1
